Assay results from patent US20110105397A1, “METHOD FOR TREATING HEART FAILURE WITH STRESSCOPIN-LIKE PEPTIDES” (priority 2009, published 2011).
Values joined by “and” are separate entries in the source; they are usually repeats but may differ in a detail not shown here. Identical values can stand only once.

Experiments:
[1] = target: T1, CRHR1 (Homo sapiens, UniProt P34998); assay: cAMP assay, h-CRHR1 transfected SK-N-MC cells; assay type: cell-based; set-up: expressed in transfected cells; details: Table 11; for EC50: h-CRHR1 transfected SK-N-MC cells, 1 hr at 37° Celsius, read-out: pA50 (Experimental) (converted)
T1 sequence (P34998 24-415): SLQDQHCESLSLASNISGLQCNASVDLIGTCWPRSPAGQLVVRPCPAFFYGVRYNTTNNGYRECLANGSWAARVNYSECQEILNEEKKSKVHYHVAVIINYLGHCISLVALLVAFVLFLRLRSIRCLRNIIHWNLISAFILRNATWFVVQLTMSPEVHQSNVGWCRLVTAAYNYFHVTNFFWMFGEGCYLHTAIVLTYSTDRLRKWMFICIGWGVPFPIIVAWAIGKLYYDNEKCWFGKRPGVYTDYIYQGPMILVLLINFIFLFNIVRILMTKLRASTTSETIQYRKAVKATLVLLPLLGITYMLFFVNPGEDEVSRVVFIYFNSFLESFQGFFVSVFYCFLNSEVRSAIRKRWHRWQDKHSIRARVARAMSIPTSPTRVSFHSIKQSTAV
Protocol: Human CRHR1 (accession number X72304) or CRHR2 (accession number U34587) were cloned into pcDNA3.1/Zeo expression vector and stably transfected into SK—N-MC cells by electroporation. Cells were maintained in MEM w/Earl's Salt with 10% FBS, 50 I.U. penicillin, 50 μg/ml streptomycin, 2 mM L-glutamine, 1 mM sodium pyruvate and 0.1 mM non-essential amino acids, 600 μg/ml G418. Cells were grown at 37° C. in 5% CO2
Cells were plated in 96-well tissue culture dishes (Biocoat from BD Biosciences) overnight at 50,000 cell/well. Cells were washed with PBS then resuspended in DMEM F-12 without phenol red, containing 10 μM isobutylmethylxanthine (IBMX). Cells were incubated with the peptides at concentrations ranging from 1 pM to 10 μM for 60 min at 37° Celsius. […] Forskolin (10 μM), a direct stimulant of adenylate cyclase, was used as positive control. The assays were stopped by the addition of 0.5 M HCl and mixing by orbital rotation for 2 h at 4° Celsius.
Transfected SK—N-MC cells were plated in 96-well Biocoat tissue culture dishes (BD Biosciences, San Jose, Calif., U.S.A) overnight at 50,000 cell/well. Cells were first washed with PBS and then suspended with DMEM/F-12 without phenol red, containing […]. Suspended cells were transferred into a 96-well flash plate coated with scintillant fluid. Cells were incubated with peptides ranging from 1 pM to 1 μM, for 60 min, at 37° Celsius. Forskolin at 10 μM was used as positive control. After ligand stimulation, cells were lysed by the addition of 0.5M HCl and mixed by orbital rotation for 2 h at 4° Celsius in order to release intracellular cAMP into the media.
Media containing released intracellular cAMP was transferred to a 96-well flash plate coated with scintillant fluid containing an anti-cAMP antibody. […] To generate a standard curve, cAMP ranging from 2.5 to 250 pmoles/ml was included in the experiment.
Individual agonist concentration-response curve data were fitted to the Hill equation, see formula below, using GraphPad Prism (Graphpad Software, La Jolla, Calif., U.S.A.), to provide estimates of agonist concentration needed to generate one-half maximal response (A50), and the maximal asymptote (α) and Hill slope (nH) parameters. In this equation, [A] is the agonist concentration and E is the measured effect:
For display purposes the mean fitted parameter estimates were used to generate a single E/[A] curve shown superimposed on the mean experimental data. Potency estimates for agonists, pA50, are expressed as the negative logarithm of the midpoint of each curve and listed with their standard error of measurement (SEM).
Human and rat peptides (see Table 10) were used on the stimulation of h-CRHR1 or h-CRHR2 transfected SK—N-MC cells in the cAMP flash plate assay. Peptides were incubated for 1 hr at 37° Celsius. Curves were calculated using non-linear regression sigmoidal concentration-response analysis calculation in GraphPad Prism.

[2] = target: T2, human CRHR2 (Homo sapiens, UniProt Q13324); assay: CRHR2 radioligand binding, [125I]-anti-sauvagine-30, SK-N-MC membranes; details: for Ki / nH: CRHR2
T2 construct: expressed in transfected cells
T2 sequence (Q13324 1-411): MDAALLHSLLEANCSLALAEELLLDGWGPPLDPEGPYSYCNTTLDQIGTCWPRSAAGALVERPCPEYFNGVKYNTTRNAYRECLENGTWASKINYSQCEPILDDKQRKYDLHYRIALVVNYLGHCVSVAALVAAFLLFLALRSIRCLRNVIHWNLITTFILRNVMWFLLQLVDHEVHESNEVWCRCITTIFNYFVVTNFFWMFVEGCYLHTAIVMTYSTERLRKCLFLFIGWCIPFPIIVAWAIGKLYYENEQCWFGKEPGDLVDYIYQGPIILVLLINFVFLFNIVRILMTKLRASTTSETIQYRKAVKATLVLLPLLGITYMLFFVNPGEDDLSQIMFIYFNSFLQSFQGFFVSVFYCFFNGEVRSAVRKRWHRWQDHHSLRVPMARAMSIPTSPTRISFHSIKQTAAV
Protocol: The binding profile of h-SCP (SEQ ID NO:1) at CRHR2 was determined in radioligand binding studies in a membrane preparation of SK-N-MC cells stably transfected with human CRHR2 using [^125I]-anti-sauvagine-30 as the radiolabel. […] The solution was then homogenized with a Polytron tissue grinder at a setting of 10 and 7×3 s (Brinkmann Instruments, Westbury, N.Y.). […] The supernatant was re-centrifuged at 26,892×g for 25 min at 4° Celsius with the final pellet being re-suspended in assay buffer. […] For competition studies, cell membranes of […] volume were incubated with either 60 pM [^125I]-anti-sauvagine-30 in 50 μl volume for the CRHR2 assay or with)[^125I]-([…]-sauvagine for the CRHR1 assay in the presence of 15 μl of competing ligand for 120 min having a total volume of 150 μl. […] The bound radioactivity was separated by filtration using a Multiscreen Resist manifold (Millipore Corp., Billerica, Mass., U.S.A). The filters were washed three times with ice-cold PBS at pH 7.5 and radioactivity retained on the filters was quantified by its liquid scintillation measured by a TopCount counter (Packard BioScience, Boston, Mass., U.S.A). All experiments were performed in triplicate. Data from individual competition curves were expressed as the percentage of specific [^125I]-anti-sauvagine-30 or)[^125I]-([…]-sauvagine binding (B) within each experiment. […] The competition curve obtained with h-SCP (SEQ ID NO:1) was biphasic.

Ki [2]	nH [2]	nH (Hill slope) ([1]; h-CRHR1)	αmax (maximal asymptote) ([1]; h-CRHR1)	nH (Hill slope) ([1]; h-CRHR1, listed as h-SRP)	Compound	EC50 [1]	competition curve / binding profile ([2]; CRHR2, [125I]-anti-sauvagine-30)	IC50 ([2]; biphasic competition curve, read-out: low pIC50 (low affinity receptor binding state) (converted))
3.09 nM	1.19 ± 0.14	1.15	99.61	–	CC[C@H](C)[C@H](NC(=O)[C@H](CO)NC(=O)[C@H](CC(C)C)NC(=O)[C@@H]1CCCN1C(=O)[C@@H]1CCCN1C(=O)[C@H](CC(=O)O)NC(=O)[C@@H](N)CC(=O)O)C(=O)N[C@@H](CC(=O)O)C(=O)N[C@@H](CC(C)C)C(=O)N[C@H](C(=O)N[C@@H](Cc1ccccc1)C(=O)N[C@@H](Cc1c[nH]cn1)C(=O)N[C@@H](CC(C)C)C(=O)N[C@@H](CC(C)C)C(=O)N[C@@H](CCCNC(=N)N)C(=O)N[C@H](C(=O)N[C@@H](CC(C)C)C(=O)N[C@@H](CC(C)C)C(=O)N[C@@H](CCC(=O)O)C(=O)N[C@@H](CC(C)C)C(=O)N[C@@H](C)C(=O)N[C@@H](CCCNC(=N)N)C(=O)N[C@H](C(=O)N[C@@H](CCC(N)=O)C(=O)N[C@@H](CO)C(=O)N[C@@H](CCC(N)=O)C(=O)N[C@@H](CCCNC(=N)N)C(=O)N[C@@H](CCC(=O)O)C(=O)N[C@@H](CCCNC(=N)N)C(=O)N[C@@H](C)C(=O)N[C@@H](CCC(=O)O)C(=O)N[C@@H](CCC(N)=O)C(=O)N[C@@H](CC(N)=O)C(=O)N[C@@H](CCCNC(=N)N)C(=O)N[C@H](C(=O)N[C@H](C(=O)N[C@@H](Cc1ccccc1)C(=O)N[C@@H](CC(=O)O)C(=O)N[C@@H](CO)C(=O)N[C@H](C(N)=O)C(C)C)[C@@H](C)CC)[C@@H](C)CC)[C@@H](C)O)[C@@H](C)O)[C@@H](C)O [SEQ ID NO: 114, DDPPLSIDLTFHLLRTLLELARTQSQRERAEQNRIIFDSV-NH2]	–	–	–
26.9 nM	1.26 ± 0.14	–	–	1.61 and 1.33 and 1.26	H-HPGSRIVLSLDVPIGLLQILLEQARARAAREQATTNARILARV-NH2 [SEQ ID NO: 117, HPGSRIVLSLDVPIGLLQILLEQARARAAREQATTNARILARV-NH2, reference compound]	457 nM and 631 nM and 525 nM	–	–

Compound	Ki [2]	nH [2]	nH (Hill slope) ([1]; h-CRHR1)	αmax (maximal asymptote) ([1]; h-CRHR1)	nH (Hill slope) ([1]; h-CRHR1, listed as h-SRP)	EC50 [1]	competition curve / binding profile ([2]; CRHR2, [125I]-anti-sauvagine-30)	IC50 ([2]; biphasic competition curve, read-out: low pIC50 (low affinity receptor binding state) (converted))
H-TKFTLSLDVPTNIMNLLFNIAKAKNLRAQAAANAHLMAQI-NH2 [SEQ ID NO: 1, TKFTLSLDVPTNIMNLLFNIAKAKNLRAQAAANAHLMAQI-NH2]	1950 nM	1.00 ± 0.04	–	–	–	> 10000 nM	biphasic	251 nM
